From patent publication US10472341B2, “Bicyclic tetrahydrothiazepine derivatives useful for the treatment of neoplastic and/or infectious diseases” (APEIRON BIOLOGICS AG, priority 2015, dated 2019) come the findings set out here.

Molecules are shown by their SMILES. Structures can show the parent of a compound that is named as a salt. Where two headings read alike, the source gives them in different places.

For assay [1], the system named is aCD3/aCD28-stimulated human PBMCs. Put plainly: Cytokine production in aCD3/aCD28 stimulated human PBMCs. The class given is cell-based. Conditions: PBMC, 18 h. A digest of the protocol:
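Ficoll-isolated human PBMCs at 1e6 cells/mL in X-Vivo15, stimulated with soluble anti-CD3/CD28 (OKT3 and 28.2, 1 μg/mL each) plus compound for 18 h at 37° C. Supernatant cytokines quantified by MSD or HTRF.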

For assay [2], the system named is aCD3/aCD28-stimulated human CD4+-T-cells. The assay is described as follows: IL-2 production and activation markers in aCD3/aCD28 stimulated isolated human CD4+-T-cells. Conditions: IL-2 production at 3 μM compound. The class given is cell-based. As to the method:
• Buffy coat content was transferred to sterile plastic bottle and filled up to 480 ml with PBS, and distributed equally to 16×50 ml tubes (30 ml/tube) • Underlayed with ˜11 ml Lymphoprep and centrifuged 20 min (2200 rpm) • The interphase containing lymphocytes was taken off with transfer pipette, cells were washed twice with PBS and pooled to one tube to determine cell count (Coulter Diff ACT) Isolation of Immune Cell Subfractions from PBMCs by MACS • PBMCs were resuspended in MACS buffer (80 μl MACS-buffer/10^7 cells) and cells were isolated with Auto-MACS device using respective kits following manufacturer's recommendations TCR Stimulation and Measurement of T Cell Activation
Isolated T cells were plated in Xvivo medium at 1.5*10 ^5 cells per in 96 well culture plates and TCR-stimulated with anti-CD3/28 mAbs in the presence of compound as indicated. Cytokine production was determined at 24 h or 48 h following TCR stimulation in cell culture supernatants using commercially available ELISA kits (BD and eBioscience) as recommended by the manufacturer. T cell proliferation and CD25 expression (CD25-PC5 reagent purchased from Beckman Coulter) was determined by flow cytometry (Beckman-Coulter FC500) and analysed with Kaluza Software. For measurement of CD69 expression, isolated CD4 and CD8 T cells were plated in Xvivo medium at […] per in 96 well culture plates and TCR-stimulated with anti-CD3/28 mAbs in the presence of compound. CD69 expression was determined at 24 h following TCR stimulation by flow cytometry (CD4eF450, CD8APCeF780 and CD69-PC7 reagent purchased from eBioscience) and analysed with Kaluza Software.
Buffy coats were obtained from Austrian Red Cross, diluted 3 fold with PBS and layered onto an isotonic Ficoll separating solution d=1.077 g/m in 50 ml centrifuge tubes. The tubes were centrifuged at 914 g for 25 min at room temperature with the brakes off. The PBMC layer was removed and washed twice with ice-cold PBS. CD4 T cells were isolated using CD4 microbeads (Milteny) and the AutoMACS device following manufacturer's instructions.
Compound examples of the present invention were classified according to the following activity criteria and are listed in Table 4a: • Activity Class A: IL-2 production at 3 μM compound concentration >10 ng/mL • Activity Class B: IL-2 production at 3 μM compound concentration between 2-10 ng/mL • Activity Class C: IL-2 production at 3 μM compound concentration between 2-fold increase as compared to mean IL-2 production of stimulated cells in the absence of compounds and <2 ng/mL

Setting [3] is: enhancement of IFN-γ production, read-out: Activity Class IFN-γ.
The mark [4] stands for this setting: enhancement of IL-2 production, read-out: Activity Class IL-2.

In the case of `CCCCNC(=O)c1cc2c(cc1F)SC[C@H](N)C(=O)N2Cc1ccc(Cl)cc1F.Cl` [Example 54, (3R)-3-amino-N-butyl-5-[(4-chloro-2-fluorophenyl)methyl]-8-fluoro-4-oxo-2,3,4,5-tetrahydro-1,5-benzothiazepine-7-carboxamide hydrochloride], the EC50 in assay [1] (setting [3]) and in assay [1] (setting [4]) was 1.58 to 5.01 µM each time. Moreover, in assay [2], the “Activity Class CD4+” value was “B (IL-2 production at 3 μM compound concentration between 2-10 ng/mL)”.
As for `COc1ccc(CNC(=O)c2ccc3c(c2)N(Cc2ccc(OC(F)(F)F)cc2)C(=O)[C@@H](N)CS3)cc1.Cl` [Example 7, (3R)-3-amino-N-[(4-methoxyphenyl)methyl]-4-oxo-5-{[4-(trifluoromethoxy)-phenyl]methyl}-2,3,4,5-tetrahydro-1,5-benzothiazepine-7-carboxamide hydrochloride], the EC50 is under 1.58 µM in assay [1] (setting [3]) and 1.58 to 5.01 µM in assay [1] (setting [4]). Moreover, the “Activity Class CD4+” value in assay [2] is listed as “B (IL-2 production at 3 μM compound concentration between 2-10 ng/mL)”.
On to `CCCCNC(=O)c1cc2c(cn1)S(=O)(=O)C[C@H](N)C(=O)N2Cc1ccc(Cl)cc1` [Example 183, (3R)-3-amino-N-butyl-1-[(4-chlorophenyl)methyl]-2,5,5-trioxo-1H,2H,3H,4H-5λ^6-pyrido[3,4-b][1,4]thiazepine-8-carboxamide hydrochloride], for which the EC50 in assay [1] (setting [3]) and in assay [1] (setting [4]) was over 5.01 µM in each case. Besides, the “Activity Class CD4+” value in assay [2] was “C (IL-2 production at 3 μM compound concentration between 2-fold increase as compared to mean IL-2 production of stimulated cells in the absence of compounds and <2 ng/mL)”.
As to `CCCCNC(=O)c1ccc2c(c1)N(Cc1cccc(OC(F)(F)F)c1)C(=O)[C@@H](N)CS2.Cl` [Example 9, (3R)-3-amino-N-butyl-4-oxo-5-{[3-(trifluoromethoxy)phenyl]methyl}-2,3,4,5-tetrahydro-1,5-benzothiazepine-7-carboxamide hydrochloride], the EC50 in assay [1] (setting [3]) was 1.58 to 5.01 µM; in assay [1] (setting [4]), over 5.01 µM. The “Activity Class CD4+” value in assay [2] was “C (IL-2 production at 3 μM compound concentration between 2-fold increase as compared to mean IL-2 production of stimulated cells in the absence of compounds and <2 ng/mL)”.
As to `C[C@@H]1[C@H](N)C(=O)N(Cc2ccc(Cl)cc2)c2cc(C(=O)NC3CC3(F)F)ccc2S1(=O)=O.Cl` (stereo partly drawn) [Example 108, (2R,3R)-3-amino-5-[(4-chlorophenyl)methyl]-N-(2,2-difluorocyclopropyl)-2-methyl-1,1,4-trioxo-2,3,4,5-tetrahydro-1λ^6,5-benzothiazepine-7-carboxamide hydrochloride], the EC50 in assay [1] (setting [3]) and in assay [1] (setting [4]) was over 5.01 µM each time. Further, the “Activity Class CD4+” value in assay [2] was “C (IL-2 production at 3 μM compound concentration between 2-fold increase as compared to mean IL-2 production of stimulated cells in the absence of compounds and <2 ng/mL)”.
Turning to `CCCCNC(=O)c1ccc2c(c1)N(Cc1ccc(OC(F)(F)F)cc1)C(=O)[C@@H](N)CS2.Cl` [Example 3, (3R)-3-amino-N-butyl-4-oxo-5-{[4-(trifluoromethoxy)phenyl]methyl}-2,3,4,5-tetrahydro-1,5-benzothiazepine-7-carboxamide hydrochloride], the EC50 in assay [1] (setting [3]) and in assay [1] (setting [4]) was 1.58 to 5.01 µM each time. Besides, in assay [2], the “Activity Class CD4+” value was “B (IL-2 production at 3 μM compound concentration between 2-10 ng/mL)”.
Turning to `CC1(NC(=O)c2cc3c(cc2F)S(=O)(=O)C[C@H](N)C(=O)N3Cc2ccc(Cl)cc2)CCC1.Cl` [Example 100, (3R)-3-amino-5-[(4-chlorophenyl)methyl]-8-fluoro-N-(1-methylcyclobutyl)-1,1,4-trioxo-2,3,4,5-tetrahydro-1λ^6,5-benzothiazepine-7-carboxamide hydrochloride], the EC50 in assay [1] (setting [3]) and in assay [1] (setting [4]) was under 1.58 µM each time. Moreover, the “Activity Class CD4+” value in assay [2] is recorded as “A (IL-2 production at 3 μM compound concentration >10 ng/mL)”.
As to `CC1(C)CC1NC(=O)c1cc2c(cc1F)S(=O)(=O)C[C@H](N)C(=O)N2Cc1ccc(Cl)cc1.Cl` (stereo partly drawn) [Example 101, (3R)-3-amino-5-[(4-chlorophenyl)methyl]-N-(2,2-dimethylcyclopropyl)-8-fluoro-1,1,4-trioxo-2,3,4,5-tetrahydro-1λ^6,5-benzothiazepine-7-carboxamide hydrochloride], the EC50 in assay [1] (setting [3]) is under 1.58 µM; in assay [1] (setting [4]) it was 1.58 to 5.01 µM. Further, in assay [2], the “Activity Class CD4+” value is given as “B (IL-2 production at 3 μM compound concentration between 2-10 ng/mL)”.
On to `CC(C)(O)CNC(=O)c1cc2c(cc1F)SC[C@H](N)C(=O)N2Cc1ccc(Cl)cc1` [Example 50, (3R)-3-amino-5-[(4-chlorophenyl)methyl]-8-fluoro-N-(2-hydroxy-2-methylpropyl)-4-oxo-2,3,4,5-tetrahydro-1,5-benzothiazepine-7-carboxamide], for which the EC50 was 1.58 to 5.01 µM in assay [1] (setting [3]) and over 5.01 µM in assay [1] (setting [4]). Moreover, the “Activity Class CD4+” value in assay [2] is “C (IL-2 production at 3 μM compound concentration between 2-fold increase as compared to mean IL-2 production of stimulated cells in the absence of compounds and <2 ng/mL)”.
For the compound `C[C@H](NC(=O)c1cc2c(cc1F)S(=O)(=O)C[C@H](N)C(=O)N2Cc1ccc(Cl)cc1)C(F)(F)F.Cl` [Example 94, (3R)-3-amino-5-[(4-chlorophenyl)methyl]-8-fluoro-1,1,4-trioxo-N-[(2S)-1,1,1-trifluoropropan-2-yl]-2,3,4,5-tetrahydro-1λ^6,5-benzothiazepine-7-carboxamide hydrochloride], the EC50 in assay [1] (setting [3]) is 1.58 to 5.01 µM; in assay [1] (setting [4]), over 5.01 µM. The “Activity Class CD4+” value in assay [2] is “C (IL-2 production at 3 μM compound concentration between 2-fold increase as compared to mean IL-2 production of stimulated cells in the absence of compounds and <2 ng/mL)”.
As for `Cl.N[C@H]1CSc2ccc(C(=O)NCC3CCOCC3)cc2N(Cc2ccc(Cl)cc2)C1=O` [Example 23, (3R)-3-amino-5-[(4-chlorophenyl)methyl]-N-(oxan-4-ylmethyl)-4-oxo-2,3,4,5-tetrahydro-1,5-benzothiazepine-7-carboxamide hydrochloride], the figures for the EC50 in assay [1] (setting [3]) and in assay [1] (setting [4]) were 1.58 to 5.01 µM and over 5.01 µM, respectively. Further, in assay [2], the “Activity Class CD4+” value is on record as “B (IL-2 production at 3 μM compound concentration between 2-10 ng/mL)”.
On to `CCNC(=O)c1ccc2c(c1)N(Cc1ccc(OC(F)(F)F)cc1)C(=O)[C@@H](N)CS2.Cl` [Example 18, (3R)-3-amino-N-ethyl-4-oxo-5-{[4-(trifluoromethoxy)phenyl]methyl}-2,3,4,5-tetrahydro-1,5-benzothiazepine-7-carboxamide hydrochloride], for which the EC50 in assay [1] (setting [3]) was under 1.58 µM; in assay [1] (setting [4]), 1.58 to 5.01 µM. The “Activity Class CD4+” value in assay [2] was “C (IL-2 production at 3 μM compound concentration between 2-fold increase as compared to mean IL-2 production of stimulated cells in the absence of compounds and <2 ng/mL)”.
As to `CC(C)(C)NC(=O)c1cc2c(cc1F)S(=O)(=O)C[C@H](N)C(=O)N2Cc1ccc(Cl)cc1.Cl` [Example 96, (3R)-3-amino-N-tert-butyl-5-[(4-chlorophenyl)methyl]-8-fluoro-1,1,4-trioxo-2,3,4,5-tetrahydro-1λ^6,5-benzothiazepine-7-carboxamide hydrochloride], the EC50 in assay [1] (setting [3]) and in assay [1] (setting [4]) was under 1.58 µM in each case. In addition, in assay [2], the “Activity Class CD4+” value is on record as “A (IL-2 production at 3 μM compound concentration >10 ng/mL)”.
As for `CC(C)(O)CNC(=O)c1ccc2c(c1)N(Cc1ccc(Cl)cc1)C(=O)[C@@H](N)CS2` [Example 48, (3R)-3-amino-5-[(4-chlorophenyl)methyl]-N-(2-hydroxy-2-methylpropyl)-4-oxo-2,3,4,5-tetrahydro-1,5-benzothiazepine-7-carboxamide], the EC50 in assay [1] (setting [3]) is 1.58 to 5.01 µM; in assay [1] (setting [4]), over 5.01 µM. For the same compound, in assay [2], the “Activity Class CD4+” value was “C (IL-2 production at 3 μM compound concentration between 2-fold increase as compared to mean IL-2 production of stimulated cells in the absence of compounds and <2 ng/mL)”.
